Like-named read-outs stand apart in the source and are kept apart here.
Tests used:
[1] = test system: T-cell; experiment: IL-2 secretion from T-cells stimulated with anti-CD3 antibody alone (Biological Example 2); type: cell-based; conditions: primary human total T-cells, read-out: IL-2 secretion, Anti-CD3 stimulation, fold change over baseline; for fold induction at 1 µM: 1 μM compound; for fold induction at 8 µM: 8 μM compound
[2] = test system: T-cell; experiment: IL-2 secretion from T-cells co-stimulated with anti-CD3 and anti-CD28 antibody (Biological Example 2); type: cell-based, human; conditions: Homo sapiens, T-cell, primary human total T-cells
In short: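 Values are fold-change over baseline: readings (IL-2 release, CD25 staining) from inhibitor-treated T-cells divided against untreated cells […]. No detailed procedure stated.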

[3] = test system: anergic human T-cells; experiment: Anergic T-cell activation assessed by IFNγ secretion (ionomycin-induced anergy); type: cell-based; conditions: anergic T-cells re-challenged with anti-CD3 and anti-CD28 for 24 hours, read-out: IFNγ Fold change from baseline
Source text: Peripheral blood mononuclear cells (PBMC) were obtained either: 1) by using Ficoll-Paque™ (GE Healthcare) for separation of peripheral blood hematopoietic cells from buffy coats of healthy human donors; or 2) directly from LeukoPak donations. Total human primary T-cells were isolated from the PBMCs utilizing negative selection with commercial kits following the manufacturer's protocol (Miltenyi Catalog #130-096-535 (i.e., cocktail of antibodies against surface markers CD14, CD15, CD16, CD19, CD34, CD36, CD56, CD123 and CD235a were incubated with the PBMCs before passing the samples by magnetic beads for removal of cells expressing those surface markers) or StemCells Catalog #17951) to yield >95% CD3+ cells assessed by flow cytometry. The cells were activated with immobilized anti-CD3 antibody (OKT3) and soluble anti-CD28 antibody (28.2) for two days at which time they are washed and allowed to rest for three days in the absence of stimulation. They were then treated with ionomycin (Sigma) for 18-24 hours to induce anergy. Following two washes to remove the ionomycin from the samples, Cbl-b inhibitor compounds were added to the cells at the indicated concentrations (e.g. 10, 1.11 and 0.37 μM) and incubated for 1 hour. The cells were then re-challenged with anti-CD3 antibody and anti-CD28 antibody for 24 hours at which point cell free supernatants were collected and assessed for cytokines (e.g., IFNγ) by ELISA (R&D Systems or Peprotech) or Luminex multiplex kits (Procarta Life Technologies) following manufacturer's protocols.
Cbl-b inhibitors were tested to determine their ability to induce or enhance secretion of cytokines from anergic T-cells (e.g. IFNγ), which is indicative of decreased T-cell tolerance.
Readouts were reported as fold change over baseline. Baseline for this study was the measurement obtained from anergic human T-cells stimulated with immobilized anti-CD3 and soluble anti-CD28, wherein the T-cells were not incubated with a Cbl-b inhibitor (Table 7). For IFNγ changes greater than 2.5-fold over baseline were considered a positive response (Table 7). Compounds were ranked into bins according to their readout as follows for IFNγ: A indicates ≤2.50, B indicates 2.51-4.00 and C indicates >4.01.

[4] = molecular target: Cbl-b (residues 36-427) (Homo sapiens, UniProt Q13191); experiment: Cbl-b binding assay (SPR, Biacore T200); conditions: 20° C., 1:1 binding model
Chain of Cbl-b (residues 36-427) (Q13191 36-427): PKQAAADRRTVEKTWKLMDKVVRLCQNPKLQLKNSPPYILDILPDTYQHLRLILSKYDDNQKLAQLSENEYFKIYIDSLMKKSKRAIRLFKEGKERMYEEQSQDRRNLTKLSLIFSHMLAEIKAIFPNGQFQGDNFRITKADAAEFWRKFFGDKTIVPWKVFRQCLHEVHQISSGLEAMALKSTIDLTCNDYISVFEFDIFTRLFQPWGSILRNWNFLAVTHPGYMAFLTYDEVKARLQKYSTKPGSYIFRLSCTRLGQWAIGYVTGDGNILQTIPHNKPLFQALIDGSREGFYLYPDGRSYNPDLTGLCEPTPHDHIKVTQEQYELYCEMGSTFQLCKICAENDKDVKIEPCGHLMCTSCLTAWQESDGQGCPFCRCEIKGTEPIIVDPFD
In short: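 NeutrAvidin capture chip, 20° C; 50 s injections at 50 μl/min, 90-180 s dissociation; 0.3 M NaCl regeneration. Asterisked column: 50 mM NaCl buffer and 30 nM Src kinase in place of 100 mM NaCl and 60 nM Src kinase. 1:1 fit.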

[5] = 0.3 μM compound, baseline = anti-CD3/anti-CD28 stimulated cells without inhibitor, read-out: IL-2 secretion, Anti-CD3/Anti-CD28 stimulation, fold change over baseline
[6] = 1 μM compound, baseline = anti-CD3/anti-CD28 stimulated cells without inhibitor, read-out: IL-2 secretion, Anti-CD3/Anti-CD28 stimulation, fold change over baseline
[7] = 4 μM compound, baseline = anti-CD3/anti-CD28 stimulated cells without inhibitor, read-out: IL-2 secretion, Anti-CD3/Anti-CD28 stimulation, fold change over baseline
[8] = fold change over baseline, 0.3 μM Cbl-b inhibitor, read-out: IL-2 secretion Anti-CD3/Anti-CD28 stimulation
[9] = fold change over baseline, 1 μM Cbl-b inhibitor, read-out: IL-2 secretion Anti-CD3/Anti-CD28 stimulation
[10] = fold change over baseline, 4 μM Cbl-b inhibitor, read-out: IL-2 secretion Anti-CD3/Anti-CD28 stimulation

Compound	fold induction at 1 µM [1]	fold induction at 0.3 µM [2, 5]	fold induction at 1 µM [2, 6]	fold induction at 8 µM [1]	fold induction at 4 µM [2, 7]	fold induction at 0.37 µM ([3]; 0.37 μM)	fold induction at 1.11 µM ([3]; 1.11 μM)	fold induction at 10 µM ([3]; 10 μM)	Kd [4] [nM]	fold induction at 0.3 µM [2, 8]	fold induction at 1 µM [2, 9]	fold induction at 4 µM [2, 10]
C[C@H](c1cc2c(c(C(F)(F)F)c1)CN(c1cccc(C3(Cc4nncn4C)COC3)c1)C2=O)N1CCC(C)(F)CC1 [Example 553b, (R)-6-(1-(4-fluoro-4-methylpiperidin-1-yl)ethyl)-2-(3-(3-((4-methyl-4H-1,2,4-triazol-3-yl)methyl)oxetan-3-yl)phenyl)-4-(trifluoromethyl)isoindolin-1-one]	> 0.201	> 7.5	> 7.5									
Cn1cnnc1CC1(c2cccc(N3Cc4c(cc(CN5CC[C@H](F)C5)cc4C(F)(F)F)C3=O)c2)COC1 [Compound 410, 6-{[(3S)-3-fluoropyrrolidin-1-yl]methyl}-2-(3-{3-[(4-methyl-4H-1,2,4-triazol-3-yl)methyl]oxetan-3-yl}phenyl)-4-(trifluoromethyl)-2,3-dihydro-1H-isoindol-1-one]	> 0.201	5 to 7.5	> 7.5	> 0.201	> 7.5							
C[C@@H](c1cc2c(c(C(F)(F)F)c1)CN(c1cccc(C3(Cc4nncn4C)COC3)c1)C2=O)N1C[C@H]2C[C@H]2C1 [Compound 541a, 6-((1S)-1-(3-azabicyclo[3.1.0]hexan-3-yl)ethyl)-2-(3-(3-((4-methyl-4H-1,2,4-triazol-3-yl)methyl)oxetan-3-yl)phenyl)-4-(trifluoromethyl)isoindolin-1-one]	> 0.201	> 7.5	> 7.5									
Cn1cnnc1CC1(c2cccc(N3Cc4c(cc(CN5CC[C@@H](C#N)C5)cc4C(F)(F)F)C3=O)c2)COC1 [Compound 421, (R)-1-((2-(3-(3-((4-methyl-4H-1,2,4-triazol-3-yl)methyl)oxetan-3-yl)phenyl)-3-oxo-7-(trifluoromethyl)isoindolin-5-yl)methyl)pyrrolidine-3-carbonitrile]	0.101 to 0.15	5 to 7.5	> 7.5	> 0.201	> 7.5							
Cn1cnnc1CC1(c2cccc(NC(=O)c3nc4c(C(F)(F)F)cccc4[nH]3)c2)COC1 [Compound 335, N-(3-{3-[(4-methyl-1,2,4-triazol-3-yl)methyl]oxetan-3-yl}phenyl)-4-(trifluoromethyl)-1H-1,3-benzodiazole-2-carboxamide]						≤ 2.5	2.51 to 4	> 4.01	< 100	2.51 to 5	5 to 7.5	> 7.5
Cn1cnnc1CC1(c2cccc(NC(=O)c3cc(CN4CC[C@H](F)C4)cc(C4CC4)n3)c2)COC1 [Compound 496, 6-cyclopropyl-4-{[(3S)-3-fluoropyrrolidin-1-yl]methyl}-N-(3-{3-[(4-methyl-1,2,4-triazol-3-yl)methyl]oxetan-3-yl}phenyl)pyridine-2-carboxamide]	> 0.201	> 7.5	> 7.5						< 100			
C[C@@H](c1cc2c(c(C(F)(F)F)c1)CN(c1cccc(C3(Cc4nncn4C)COC3)c1)C2=O)N1CCC(C)(F)CC1 [Example 553a, (S)-6-(1-(4-fluoro-4-methylpiperidin-1-yl)ethyl)-2-(3-(3-((4-methyl-4H-1,2,4-triazol-3-yl)methyl)oxetan-3-yl)phenyl)-4-(trifluoromethyl)isoindolin-1-one]	> 0.201	> 7.5	> 7.5						< 100			
Cn1cnnc1C(F)(F)[C@](C)(F)c1cccc(N2Cc3c(cc(CN4CCC(F)(F)C4)cc3C(F)(F)F)C2=O)c1 [Compound 448, (R)-6-((3,3-difluoropyrrolidin-1-yl)methyl)-2-(3-(1,1,2-trifluoro-1-(4-methyl-4H-1,2,4-triazol-3-yl)propan-2-yl)phenyl)-4-(trifluoromethyl)isoindolin-1-one]	0.101 to 0.15	1.01 to 2.5	2.51 to 5	> 0.201	> 7.5				< 100			
Cn1cnnc1CC1(c2cccc(N3Cc4c(cc(CN5CCC[C@H](F)C5)cc4C(F)(F)F)C3=O)c2)COC1 [Compound 432, 6-{[(3S)-3-fluoropiperidin-1-yl]methyl}-2-(3-{3-[(4-methyl-4H-1,2,4-triazol-3-yl)methyl]oxetan-3-yl}phenyl)-4-(trifluoromethyl)-2,3-dihydro-1H-isoindol-1-one]	> 0.201	> 7.5	> 7.5									
Cn1cnnc1CC1(c2cccc(N3Cc4c(cc(CN5CC6(CC6)C5)cc4C(F)(F)F)C3=O)c2)COC1 [Compound 487, 6-{5-azaspiro[2.3]hexan-5-ylmethyl}-2-(3-{3-[(4-methyl-1,2,4-triazol-3-yl)methyl]oxetan-3-yl}phenyl)-4-(trifluoromethyl)-3H-isoindol-1-one]	> 0.201	> 7.5	> 7.5									
Cn1cnnc1C(F)(F)[C@](C)(F)c1cccc(N2Cc3c(cc(CN4CC[C@H](F)C4)cc3C(F)(F)F)C2=O)c1 [Compound 447, 6-(((S)-3-fluoropyrrolidin-1-yl)methyl)-2-(3-((R)-1,1,2-trifluoro-1-(4-methyl-4H-1,2,4-triazol-3-yl)propan-2-yl)phenyl)-4-(trifluoromethyl)isoindolin-1-one]	> 0.201	2.51 to 5	> 7.5	> 0.201	> 7.5				< 100			
Cn1cnnc1CC1(c2cccc(N3Cc4c(cc(CN5C[C@H]6C[C@H]6C5)cc4C(F)(F)F)C3=O)c2)COC1 [Compound 429, 6-(((1R,5S)-3-azabicyclo[3.1.0]hexan-3-yl)methyl)-2-(3-(3-((4-methyl-4H-1,2,4-triazol-3-yl)methyl)oxetan-3-yl)phenyl)-4-(trifluoromethyl)isoindolin-1-one]	> 0.201	> 7.5	> 7.5	> 0.201	> 7.5							
CCOc1cc([C@H](C)Cc2nncn2C)cc(N2Cc3c(cccc3C(F)(F)F)C2=O)n1 [Compound 358, (R)-2-(6-ethoxy-4-(1-(4-methyl-4H-1,2,4-triazol-3-yl)propan-2-yl)pyridin-2-yl)-4-(trifluoromethyl)isoindolin-1-one]									< 100	2.51 to 5	5 to 7.5	> 7.5
C[C@H](Cc1nncn1C)c1cccc(NC(=O)c2ccc(CO)c(C3CC3)n2)c1 [Compound 203, 6-cyclopropyl-5-(hydroxymethyl)-N-[3-[(2R)-1-(4-methyl-4H-1,2,4-triazol-3-yl)propan-2-yl]phenyl]pyridine-2-carboxamide]									< 100	> 7.5	> 7.5	> 7.5

— patent publication US20220324835A1 (Nurix Therapeutics, Inc., priority 2018, published 2022)
